Entries after “also recorded” stand apart in the source; their conditions may differ. Like-named read-outs stand apart in the source and are kept apart here.
Experiments:
[1] = test system: metabolites in wounded Romaine lettuce midrib; assay: Untargeted LC-MS/MS metabolomics of melatonin-treated wounded midribs (Test 3); type: in vivo, lettuce (Romaine 'Manatee')
Procedure: For Test 1, the evaluations for pink rib development, protein quantification, and enzyme activity were conducted with Romaine and iceberg lettuce heads (36 heads per type; cultivars unknown) purchased (February 2020) upon arrival at a local grocery store in Gainesville, FL, and immediately transported to the Postharvest Horticulture Laboratory at the University of Florida in Gainesville, FL. For Test 2, metabolite extraction and detection were conducted with commercially grown, harvested, and cooled Romaine (‘Tall Guzmaine’) and iceberg (‘Chosen’) lettuce (December 2020) grown in Belle Glade, FL. For Test 3, untargeted metabolomics was performed using commercially grown, harvested, and cooled Romaine (‘Manatee’) lettuce grown in Belle Glade, FL (April 2021). To keep the lettuce head samples cool while preventing freeze damage during transport, a 3- to 6-inch layer of crushed ice was placed on the bottom of each 114-L cooler. A piece of waxed, corrugated fiberboard was placed on top of the ice prior to packing with the lettuce samples for transport the same day to the Postharvest Horticulture Laboratory in Gainesville (approximately 4 h distant).
In all tests, experimental setup began immediately upon arrival to the laboratory. 90 outer leaves were randomly selected from 18 to 22 lettuce heads that met commercial and damage-free quality standards. A midrib segment (12.5 cm) was excised from the center of each leaf and excess leaf blade tissue was trimmed parallel to the midrib. This procedure was adapted from the wounding procedure of Cantwell (2016). Each midrib was then partially sliced transversally at 1.3-cm increments along the midrib. Midribs (n=15) were immediately immersed for 30 s in one of five treatment solutions: deionized water (wounded control), L-cysteine (4.1 mM), naringenin (1.8 mM) with 20% dimethyl sulfoxide (DMSO), serotonin (2.8 or 5.7 mM) or melatonin (4.3 mM) with 0.50% DMSO. Immediately following immersion, the midribs for each treatment were patted dry using paper towels and placed (n=5) in a breathable, high-density polyethylene bag (n=3) (Narrow Profile Produce Bags [14×18 inches] Model No. S-19156, Uline®, Pleasant Prairie, WI). Unwounded control midribs were stored in the same manner. To allow for direct comparison, each cut site on each midrib was assigned an initial discoloration value on day 1 based on the coloration of the rib. Samples were stored at 5° C. with 95-98% relative humidity (RH) for 5 d, simulating commercial storage.
Unwounded, wounded, and compound-treated wounded midrib samples were collected for untargeted metabolite analysis to identify global metabolite changes in response to melatonin application and targeted metabolite analysis to quantify chlorogenic acid a major caffeoyl compound in lettuce. For both targeted and untargeted metabolite analyses, fresh samples (500-800 mg) of the midribs from each treatment (n=3) were weighed, then immediately frozen in liquid nitrogen and stored at −80° C. for subsequent metabolite extraction. Frozen samples were extracted with a 50% methanol extraction solution containing a 1:1 (v:v) of methanol with deionized water. Samples were completely submerged in a 1:1.5 (w:v) of the sample weight (mg) to extraction solution volume (μL), respectively, and incubated at 65° C. for 90 min and then centrifuged at 9660×g for 10 min (MC-12 High Speed Micro Centrifuge, Benchmark Scientific, Edison, NJ). The supernatant was transferred to a new tube and filtered with a 0.45 μm filter (Choice, Thermo Scientific, Wilmington, DE). An aliquot of 400 μL was vacuum-dried.
For untargeted metabolite analysis, vacuum-dried samples were resuspended into 100 μL of 50% methanol solution containing an internal standard umbelliferon (18 μg mL^−1) and vortexed for 1 min. After centrifugation at 13,000×g for 15 min, the solutions were transferred to sample inserts and analyzed. […]

loquat = conditions: melatonin; 25 d storage at 4° C.; cited from earlier work
PAL = conditions: melatonin 0.1 mM; after 2 d at 4° C.; cited from earlier work
PPO [2] = conditions: melatonin 0.1 mM; after 2 d; cited from earlier work
PPO [3] = conditions: melatonin 0.4 mM; litchi pericarp; up to 6 d; cited from earlier work
[4] = test system: nonenzymatic antioxidants, such as phenolics, flavonoids, and anthocyanins; conditions: melatonin; cited from earlier work
pear flesh = conditions: melatonin 0.1 mM, cited from earlier work
litchi fruit [5] = conditions: cited from earlier work
cassava roots = conditions: melatonin 0.1 mM, cited from earlier work
litchi fruit [6] = conditions: melatonin 0.4 mM, cited from earlier work
peach fruit = conditions: cited from earlier work
PPO [7] = conditions: role: inhibitor; L-cysteine 1% or 82.5 mM; after 2 d and up to 8 d at 1° C.; cited from earlier work
[8] = test system: fresh-cut iceberg lettuce; conditions: cited from earlier work
PPO [9] = conditions: role: inhibitor; L-cysteine; cited from earlier work
fresh-cut artichoke = conditions: L-cysteine 0.5% or 41.3 mM; cited from earlier work
[10] = test system: chlorogenic acid concentration in homogenized lettuce tissue; conditions: L-cysteine; 24 h at 25° C.; cited from earlier work

## COc1ccc2[nH]cc(CCNC(C)=O)c2c1 [melatonin]
[1]; Romaine, wounded midrib
  effect on wounding-related metabolite changes: reduces overall metabolite changes in wounded lettuce midrib; also recorded: substantially affected wounding-related metabolite changes
[1]; Romaine, LC/MS
  chlorogenic acid abundance, melatonin-treated vs wounded: remained similar
[1]; of 25 diminished compounds
  number of wounding-diminished compounds increased with melatonin: 16 compounds
[1]; of 25 diminished compounds, vs untreated wounded samples
  number of wounding-diminished compounds remaining decreased: 9 compounds
[1]; of 68 accumulated compounds
  number of wounding-accumulated compounds reduced in abundance upon melatonin: 64 compounds
  number of wounding-accumulated compounds that maintained high abundancy: four
loquat
  chlorogenic acid concentration: increased
  quality and lignification: maintaining quality and delaying lignification
PAL
  PAL activity: higher
PPO [2]
  PPO activity: significantly lower
PPO [3]
  PPO activity: significant decrease
[4]
  nonenzymatic antioxidants (phenolics, flavonoids, anthocyanins): enhances nonenzymatic antioxidants
Pear flesh; after 4 d at 4° C.
  total phenolic content: higher
Pear flesh; pear flesh, 8 d at 4° C.
  inhibition of browning: no inhibition of browning
Litchi fruit [5]; melatonin 0.4 mM, litchi pericarp, up to 6 d
  increase in total phenolics: approximately 40%
Litchi fruit [5]; melatonin 0.4 mM, litchi
  activity of several antioxidants: increased
  free radical development: reduced
Litchi fruit [5]; melatonin, litchi
  key enzymes in the melatonin biosynthesis pathway: Upregulation
Cassava roots; 28° C., untreated control 6 h
  time to which vascular streaking disorder was delayed: 12 h
Cassava roots; vs untreated control
  delay of vascular streaking / discoloration: delayed development of discoloration; also recorded: delayed twice as long as untreated control slices
Litchi fruit [6]; 25° C.
  delay of pericarp browning: 4 days
Litchi fruit [6]; up to 6 d
  discoloration of litchi pericarp: significant decrease
Peach fruit; melatonin 0.1 mM, via increased enzyme activity
  lipid peroxidation: inhibited lipid peroxidation
Peach fruit; melatonin 0.1 mM
  senescence: delayed senescence
  total phenolics: maintained total phenolics
Peach fruit; melatonin, vs untreated
  antioxidant capacity: increased
  reactive oxygen species (ROS) levels: declined

## N[C@@H](CS)C(=O)O [L-cysteine]
PPO [7]
  PPO activity: significantly declined
[8]; L-cysteine 8.3 mM, 6 d at 8° C., vs control
  reduction of discoloration of midrib surface area: greater than 80%
[8]; L-cysteine 0.1% or 8.3 mM, 8° C., untreated discolored after 2 d
  delay of pink rib development: 6 days
[8]; L-cysteine 0.1% or 8.3 mM, 6 d at 8° C.
  pink rib development, share of midrib surface area: < 20 % of the midrib surface area
PPO [9]
  PPO activity: inhibited PPO activity
fresh-cut artichoke
  effect on browning of artichoke: no effect; also recorded: developed browning or became yellow
[10]
  chlorogenic acid concentration: reduced chlorogenic acid concentration
